This is an account of results in patent US20050143391A1, “Heterocyclic amides with alpha-4 integrin antagonist activity” (J. Uriach Y Compañia S.A., priority 2002, published 2005).

The assay concerns the target T1, integrin α4β1 (Homo sapiens, UniProt P05556+P13612).
T1 construct: endogenous in cells; host or cells: Jurkat cells
Put plainly: Inhibition of α4β1-dependent cell adhesion (Jurkat cells to peptide CS-1). It is filed as cell-based. The following applies: adhesion of Jurkat cells to CS-1-coated plates; products preincubated with cells at 37° C. for 30 minutes; at least 6 product concentrations. On the procedure:
Inhibition of α4β1-Dependent Cell Adhesion
Inhibition of α4β1-dependent cell adhesion was assayed by evaluating the interaction between the peptide CS-1 (H-CLHGPEILDVPST-CONH2) and Jurkat cells (T lymphocyte cell line expressing activated integrin α4β1 but not integrin α4β7) after preincubation of said cells with the compounds of formula I to be tested. The peptide CS-1 was synthesized by conventional solid phase chemistry and purified by HPLC. Its identity was determined by elemental analysis and mass spectroscopy.
1.—Preparation of CS-1-Coated Plates
96-black well plates (Costar 3925) were used. 200 μL of 2% bovine serum albumin solution (BSA, Sigma α4503) was added per well and the plate was incubated for 2 hours at 37° C. The solution was discarded and the plate was washed twice with 200 μL of phosphate buffered saline solution (PBS, Gibco 14190-094) per well. Then, 200 μL of 10 μg/mL N-succinimidyl 3-(2-pyridyldithio)propionate solution (SPDP, Sigma P-3415) was added per well, and the plate was incubated at 37° C. for 30 minutes. The remaining solution was discarded and the plate was twice washed with 200 μL per well of PBS. Next, 200 μL of 25 μg/mL CS-1 peptide solution (equivalent to 5 μg/well) was added per well and the plate was incubated at 37° C. for 2 hours and then overnight at 4° C.
2.—Jurkat Cell Line: Culture and Fluorescent Labelling
Jurkat cells were kept in culture at a density comprised between 2×10^5 and 1.5×10^6 cells/mL in 1640 RPMI medium (Gibco 21875-034) enriched with 10% fetal calf serum (FCS, Gibco 10270-106).
50×10^6 cells were extracted, centrifuged (1200 rpm, 10 min, room temperature) and the medium was discarded. Cells were resuspended in 5 mL of RPMI, and 10 μL of a 1 mM solution of the fluorophore calceine.AM (Molecular Probes, C-3100) was added. The suspension was incubated for 30 min at 37° C. in the darkness, with occasional shaking. 40 mL of RPMI was added to stop the labelling and the suspension was centrifuged (1200 rpm, 10 min, room temperature). The medium was discarded, and the labelled cells were washed with 40 mL of RPMI in order to remove the unincorporated fluorescent probe. Finally, cells were resuspended in RPMI enriched with 10% FCS to obtain a 8×10^6 cells/mL suspension.
The plate previously prepared was twice washed with 200 μL per well of PBS and blocked with 200 μL of 1% BSA for at least 1 hour at room temperature.
The products to be tested were dissolved in dimethylsulfoxide at a concentration of 10 mM and dilutions thereof were prepared in RPMI medium enriched with 10% FCS. The products were preincubated with the Jurkat cells at 37° C. for 30 minutes, at a product concentration comprised between 1 nM and 10 μM, at a cell density of 4×10^6 cells/mL and at a maximal dimethylsulfoxide concentration of 0.1%.
100 μL of the resulting cell-product supsension was added per well (cellular density 4×10^5 cells/well). The product was omitted in the control wells and cells or CS-1 were omitted in the blanks. The plate was incubated for 60 min at room temperature in the-darkness, was twice washed with 200 μL per well of RPMI and then 100 μL of PBS was added. The plate was read with a fluorescence reader at an excitation wavelength of 485 nm and at an emission wavelength of 530 nm.
Maximal adhesion (100%) was determined as the average of the fluorescence intensities (FI) of the control wells, and the minimal adhesion as the average FI of the blanks. The adhesion inhibition percentage was determined using the following formula: [formula]
The results are expressed as the IC50 values (concentration producing 50% inhibition). IC50 values were calculated by testing at least 6 product concentrations and by adjusting the inhibition percentages to a dose-response curve of variable slope.

T1 sequence (P13612 34-1032): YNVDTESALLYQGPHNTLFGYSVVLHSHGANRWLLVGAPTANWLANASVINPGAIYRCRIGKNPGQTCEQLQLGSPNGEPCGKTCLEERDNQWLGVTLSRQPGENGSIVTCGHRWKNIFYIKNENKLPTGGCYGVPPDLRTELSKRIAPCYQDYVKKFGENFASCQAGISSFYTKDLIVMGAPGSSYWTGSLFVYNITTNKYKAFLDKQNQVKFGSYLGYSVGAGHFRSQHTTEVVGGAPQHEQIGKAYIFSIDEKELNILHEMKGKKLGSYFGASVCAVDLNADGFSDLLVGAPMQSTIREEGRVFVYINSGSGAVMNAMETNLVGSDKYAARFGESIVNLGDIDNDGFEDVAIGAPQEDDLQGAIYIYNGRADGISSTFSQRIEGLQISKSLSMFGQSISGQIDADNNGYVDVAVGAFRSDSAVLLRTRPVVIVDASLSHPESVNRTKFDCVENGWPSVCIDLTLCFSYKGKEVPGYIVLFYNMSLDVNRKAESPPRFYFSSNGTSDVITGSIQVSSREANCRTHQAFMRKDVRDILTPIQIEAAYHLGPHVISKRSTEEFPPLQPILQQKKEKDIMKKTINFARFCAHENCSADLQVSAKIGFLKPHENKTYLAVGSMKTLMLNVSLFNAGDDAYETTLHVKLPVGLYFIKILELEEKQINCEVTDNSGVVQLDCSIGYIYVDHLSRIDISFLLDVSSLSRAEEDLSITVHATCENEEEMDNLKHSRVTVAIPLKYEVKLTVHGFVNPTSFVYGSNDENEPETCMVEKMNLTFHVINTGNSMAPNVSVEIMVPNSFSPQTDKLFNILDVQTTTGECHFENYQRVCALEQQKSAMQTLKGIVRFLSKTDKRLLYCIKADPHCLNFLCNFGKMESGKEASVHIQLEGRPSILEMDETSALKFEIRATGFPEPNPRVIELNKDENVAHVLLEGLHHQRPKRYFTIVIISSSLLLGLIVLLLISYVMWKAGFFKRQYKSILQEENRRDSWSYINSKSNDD
T1 sequence (P05556 21-798): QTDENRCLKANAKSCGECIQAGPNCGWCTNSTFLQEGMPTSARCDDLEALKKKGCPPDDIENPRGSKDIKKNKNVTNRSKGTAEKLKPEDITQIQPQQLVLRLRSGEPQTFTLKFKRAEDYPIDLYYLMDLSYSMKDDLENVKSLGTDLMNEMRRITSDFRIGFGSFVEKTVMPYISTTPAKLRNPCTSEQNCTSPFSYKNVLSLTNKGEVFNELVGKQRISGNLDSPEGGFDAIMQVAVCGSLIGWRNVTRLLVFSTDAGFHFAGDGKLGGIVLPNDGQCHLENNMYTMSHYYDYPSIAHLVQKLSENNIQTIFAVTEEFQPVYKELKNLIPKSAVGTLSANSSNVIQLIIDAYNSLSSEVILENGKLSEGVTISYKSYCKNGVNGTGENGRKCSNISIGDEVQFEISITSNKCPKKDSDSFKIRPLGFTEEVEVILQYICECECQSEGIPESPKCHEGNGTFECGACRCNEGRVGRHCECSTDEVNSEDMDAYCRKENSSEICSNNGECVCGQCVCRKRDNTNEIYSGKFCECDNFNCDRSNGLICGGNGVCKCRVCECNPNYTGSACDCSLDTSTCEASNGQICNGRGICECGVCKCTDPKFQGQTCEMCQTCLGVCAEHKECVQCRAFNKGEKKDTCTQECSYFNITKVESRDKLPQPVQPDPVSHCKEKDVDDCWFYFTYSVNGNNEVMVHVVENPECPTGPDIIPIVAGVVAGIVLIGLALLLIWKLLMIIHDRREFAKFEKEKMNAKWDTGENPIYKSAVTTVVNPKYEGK

In the case of `Cc1ccc(S(=O)(=O)N2CCC[C@H]2C(=O)N[C@@H](CCC(=O)N2CCN(Cc3cccs3)CC2)C(=O)O)cc1` [Example 77, (2S)-5-Oxo-5-[4-(2-thienylmethyl)piperazin-1-yl]-2-[[1-tosyl-L-prolyl]amino]pentanoic Acid], the half-inhibitory concentration (IC50) (in general, the concentration that inhibits the measured activity by half) turned out to be 247 nM. In the case of `CN1CCN(CC2CCN(C(=O)CC[C@H](NC(=O)[C@@H]3CCCN3S(=O)(=O)c3cc(Cl)cc(Cl)c3)C(=O)O)CC2)CC1` [Example 79, (2S)-2-[1-(3,5-Dichlorophenylsulfonyl)-L-prolylamino]-5-[4-(4-methylpiperazin-1-ylmethyl)piperidin-1-yl]-5-oxopentanoic Acid] it was 7.6 nM; in that of `O=C(O)[C@H](CCC(=O)N1CCC(COc2ccncc2)CC1)NC(=O)[C@@H]1CCCN1S(=O)(=O)c1cc(Cl)cc(Cl)c1` [Example 102, (2S)-2-[1-(3,5-Dichlorophenylsulfonyl)-L-prolylamino]-5-oxo-5-[4-(4-pyridyloxymethyl)piperidin-1-yl]pentanoic Acid], 305 nM; in that of `Cc1ccc(C)n1CC1CCN(C(=O)CC[C@H](NC(=O)[C@@H]2CCCN2S(=O)(=O)c2cc(Cl)cc(Cl)c2)C(=O)O)CC1` [Example 82, (2S)-2-[1-(3,5-Dichlorophenylsulfonyl)-L-prolylamino]-5-[4-(2,5-dimethylpyrrol-1-ylmethyl)piperidin-1-yl]-5-oxopentanoic Acid], 89 nM. In turn, `CCc1nc2cnccc2n1CC1CCN(C(=O)CC[C@H](NC(=O)[C@@H]2CCCN2S(=O)(=O)c2cc(Cl)cc(Cl)c2)C(=O)O)CC1` [Example 85, (2S)-2-[1-(3,5-Dichlorophenylsulfonyl)-L-prolylamino]-5-[4-(2-ethylimidazo[4,5-c]pyridin-1-ylmethyl)piperidin-1-yl]-5-oxopentanoic Acid] returned a concentration for half-maximal inhibition (IC50) of 12 nM.

The compound `Cc1ccc(S(=O)(=O)N2CCC[C@H]2C(=O)N[C@@H](CCC(=O)N2CCC(Cn3ccnc3-c3ccccc3)CC2)C(=O)O)cc1` [Example 63, (2S)-5-Oxo-5-[4-(2-phenylimidazol-1-ylmethyl)piperidin-1-yl]-2-[1-tosyl-L-prolylamino]pentanoic Acid] returned an IC50 of 198 nM.

Turning to `O=C(O)[C@H](CCC(=O)N1CCC(CN2CCOC2=O)CC1)NC(=O)[C@@H]1CCCN1S(=O)(=O)c1cc(Cl)cc(Cl)c1` [Example 70, (2S)-2-[1-(3,5-Dichlorophenylsulfonyl)-L-prolylamino]-5-oxo-5-[4-(2-oxooxazolidin-3-ylmethyl)piperidin-1-yl]pentanoic Acid], the concentration for half-maximal inhibition (IC50) amounted to 17 nM. `O=C(O)[C@H](CCC(=O)N1CCC(CCOC(=O)N2CCN(c3ccccc3)CC2)CC1)NC(=O)[C@@H]1CCCN1S(=O)(=O)c1cc(Cl)cc(Cl)c1` [Example 117, (2S)-2-[1-(3,5-Dichlorophenylsulfonyl)-L-prolylamino]-5-oxo-5-[4-[2-(4-phenylpiperazin-1-ylcarbonyloxy)ethyl]piperidin-1-yl]pentanoic Acid] displayed an IC50 of 135 nM. Compound `O=C(O)[C@H](CCC(=O)N1CCC(CCN2CCOCC2)CC1)NC(=O)[C@@H]1CCCN1S(=O)(=O)c1cc(Cl)cc(Cl)c1` [Example 80, (2S)-2-[1-(3,5-Dichlorophenylsulfonyl)-L-prolylamino]-5-[4-[2-(4-morpholinyl)ethyl]piperidin-1-yl]-5-oxopentanoic Acid] showed a concentration for half-maximal inhibition (IC50) of 0.5 nM. “(2S)-2-[1-(3,5-Dichlorophenylsulfonyl)-L-prolylamino]-5-oxo-5-[4-(1-pyrrolylmethyl)piperidin-1-yl]pentanoic Acid [Example 81]” had a half-inhibitory concentration (IC50) of 33 nM. Compound `O=C(O)[C@H](CCC(=O)N1CCC(CN2Cc3ccccc3C2=O)CC1)NC(=O)[C@@H]1CCCN1S(=O)(=O)c1cc(Cl)cc(Cl)c1` [Example 54, (2S)-5-[4-[(1-Oxoisoindolin-2-yl)methyl]piperidin-1-yl]-2-[1-(3,5-dichlorophenylsulfonyl)-L-prolylamino]-5-oxopentanoic Acid] showed an IC50 of 22 nM. Regarding `Cc1ccc(S(=O)(=O)N2CCC[C@H]2C(=O)N[C@@H](CCC(=O)N2CCC(CN3Cc4ccccc4C3=O)CC2)C(=O)O)cc1` [Example 76, (2S)-5-Oxo-5-[4-(1-oxoisoindolin-2-ylmethyl)piperidin-1-yl]-2-[[1-tosyl-L-prolyl]amino]pentanoic Acid], the IC50 is 67 nM. The value for `Cc1ccc(S(=O)(=O)N2CCC[C@H]2C(=O)N[C@@H](CCC(=O)N2CCC(Cn3c(C)nc4cnccc43)CC2)C(=O)O)cc1` [Example 73, (2S)-5-[4-(2-Methylimidazo[4,5-c]pyridin-1-ylmethyl)piperidin-1-yl]-5-oxo-2-[1-tosyl-L-prolylamino]pentanoic Acid] was 57 nM; that for `CN(C)CC1CCN(C(=O)CC[C@H](NC(=O)[C@@H]2CCCN2S(=O)(=O)c2cc(Cl)cc(Cl)c2)C(=O)O)CC1` [Example 83, (2S)-2-[1-(3,5-Dichlorophenylsulfonyl)-L-prolylamino]-5-[4-(dimethylaminomethyl)piperidin-1-yl]-5-oxopentanoic Acid] was 65 nM; that for `Cc1nc2cnccc2n1CC1CCN(C(=O)NC[C@H](NC(=O)[C@@H]2CCCN2S(=O)(=O)c2cc(Cl)cc(Cl)c2)C(=O)O)CC1` [Example 89, (2S)-2-[1-(3,5-Dichlorophenylsulfonyl)-L-prolyl]amino-3-[[4-(2-methylimidazo[4,5-c]pyridin-1-ylmethyl)piperidin-1-ylcarbonyl]amino]propionic Acid] was 7.7 nM. In turn, `CCCc1nc2cnccc2n1CC1CCN(C(=O)CC[C@H](NC(=O)[C@@H]2CCCN2S(=O)(=O)c2cc(Cl)cc(Cl)c2)C(=O)O)CC1` [Example 119, (2S)-2-[1-(3,5-Dichlorophenylsulfonyl)-L-prolylamino]-5-oxo-5-[4-(2-propylimidazo[4,5-c]pyridin-1-ylmethyl)piperidin-1-yl]pentanoic Acid] yielded an IC50 of 49.8 nM. The value for `CCNCC1CCN(C(=O)CC[C@H](NC(=O)[C@@H]2CCCN2S(=O)(=O)c2cc(Cl)cc(Cl)c2)C(=O)O)CC1` [Example 96, (2S)-2-[1-(3,5-Dichlorophenylsulfonyl)-L-prolylamino]-5-[4-[(ethylamino)methyl]piperidin-1-yl]-5-oxopentanoic Acid] was 74.8 nM; that for `CN(C)CC1CCN(C(=O)NC[C@H](NC(=O)[C@@H]2CCCN2S(=O)(=O)c2cc(Cl)cc(Cl)c2)C(=O)O)CC1` [Example 95, (2S)-2-[1-(3,5-Dichlorophenylsulfonyl)-L-prolyl]amino-3-[[4 (dimethylaminomethyl)piperidin-1-ylcarbonyl]amino]propionic Acid] was 4.9 nM; that for `CCOCCn1c(CN2CCN(C(=O)CC[C@H](NC(=O)[C@@H]3CCCN3S(=O)(=O)c3ccc(C)cc3)C(=O)O)CC2)nc2ccccc21` [Example 74, (2S)-5-[4-[[1-(2-Ethoxyethyl)benzimidazol-2-yl]methyl]piperazin-1-yl]-5-oxo-2-[[1-tosyl-L-prolyl]amino]pentanoic Acid] was 48 nM. The compound `O=C(O)[C@H](CCC(=O)N1CCC(CN2CCCCC2)CC1)NC(=O)[C@@H]1CCCN1S(=O)(=O)c1cc(Cl)cc(Cl)c1` [Example 94, (2S)-2-[1-(3,5-Dichlorophenylsulfonyl)-L-prolylamino]-5-oxo-5-[4-(1-piperidylmethyl)piperidin-1-yl]pentanoic Acid] had an IC50 of 14.1 nM.
